Laboratory results reported in publication PMC4627231, “Targeting the sugar metabolism of tumors with a first-in-class 6-phosphofructo-2-kinase (PFKFB4) inhibitor” (Oncotarget, 2015).

Key:
human recombinant PFKFB3 = human recombinant PFKFB3 (Homo sapiens, UniProt Q16875); test: In vitro kinase assay with purified recombinant human PFKFB3; format: biochemical; conditions: 10 μM
Protocol: (§1) Figure 1 Compound 5MPN inhibits recombinant PFKFB4 enzyme activity A. Representation of the 5MPN molecule docked in the crystal structure of rat testes PFKFB4. 5MPN is shown in thicker stick representation than the surrounding protein residues. B. Molecular structure of 5MPN (MW, 305.3 Da). In vitro kinase assays using purified recombinant human PFKFB4 were performed as described in the presence or absence of 0.1, 1 or 10 μM 5MPN. Michaelis-Menten C. and Lineweaver-Burk double reciprocal D. plots examining PFKFB4 enzyme activity as a function of F6P concentration (0 - 2000 μmol/L) are shown. E. In vitro kinase assays using purified recombinant human PFKFB3 were performed as described in the presence or absence of 0.1, 1 or 10 μM 5MPN and the Michaelis-Menten plot examining PFKFB3 enzyme activity as a function of F6P concentration (0 - 400 μmol/L) is shown. Data shown are representative of three independent experiments. […] The activity of 5MPN against 97 kinases was examined using a commercially available active-site dependent competition binding assay core service (KINOMEscanEDGE) that quantifies the capacity of test agents to compete with an immobilized, active-site directed ligand using a DNA-tagged kinase and immobilized ligand and compound.

H460 cells = test: Apoptosis by flow cytometry (annexin V / propidium iodide); format: cell-based, human; conditions: 10μM 5MPN
Protocol: To measure apoptosis, cells were stained with annexin V and propidium iodide and examined as previously described. For cell cycle experiments, cells were detached, washed with cold PBS and fixed in 70% ethanol at 4°C for 30 minutes. The cells then were pelleted by centrifugation, resuspended in PBS containing PI and RNase A, incubated at 37°C in the dark for 30 minutes and analyzed by flow cytometry (BD FACSCalibur). Data were analyzed using FlowJo software (TREE STAR Inc.). Results were calculated as the mean ± SD of three experiments and data shown are representative of three independent experiments.

human recombinant PFKFB4 = human recombinant PFKFB4 (Homo sapiens, UniProt Q16877); test: In vitro kinase assay with purified recombinant human PFKFB4; format: biochemical; conditions: Lineweaver-Burk analyses
human recombinant PFKFB4, sequence (Q16877 whole entry): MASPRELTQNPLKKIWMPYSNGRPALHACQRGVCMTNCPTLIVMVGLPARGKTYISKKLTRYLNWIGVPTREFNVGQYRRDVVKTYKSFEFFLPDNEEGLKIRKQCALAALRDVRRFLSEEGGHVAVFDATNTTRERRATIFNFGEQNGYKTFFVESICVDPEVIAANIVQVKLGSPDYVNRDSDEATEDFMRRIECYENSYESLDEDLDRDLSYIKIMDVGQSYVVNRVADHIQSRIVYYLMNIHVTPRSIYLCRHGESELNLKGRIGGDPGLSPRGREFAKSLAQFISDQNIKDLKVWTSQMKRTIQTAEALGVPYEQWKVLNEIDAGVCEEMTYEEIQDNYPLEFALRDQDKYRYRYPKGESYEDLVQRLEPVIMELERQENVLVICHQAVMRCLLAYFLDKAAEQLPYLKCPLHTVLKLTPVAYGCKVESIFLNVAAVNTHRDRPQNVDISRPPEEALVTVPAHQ
Protocol: as §1

[1] = system: intracellular F2,6BP in H460 cells; test: F2,6BP measurement in H460 cells; format: cell-based, human; conditions: for [F2,6BP]: 24 hours (DMSO 6.1 ±0.2)
Protocol: Cells or tissues were prepared as previously described and F2,6BP content measured using a coupled enzyme reaction following the method of Van Schaftingen et al and normalized to total cellular protein measured by the bicinchoninic acid assay (Thermo Scientific). All data are expressed as the mean ± SD of three experiments. Statistical significance was assessed by the two-sample t test (independent variable).

[2] = Pharmacokinetic profile after IV and oral administration; format: in vivo; conditions: mouse, female C57BL/6 mice, plasma
Protocol: The pharmacokinetic profile was determined in female C57BL/6 mice (Charles River Laboratories) following IV and oral administration of 5MPN. Using only female mice lowered the animal numbers required for meaningful results without issues of potential gender differences in exposure. Eight time points (n=3 per time point) were used to determine indicated PK parameters calculated using WinNonLin v5.0. Plasma samples were extracted using acetonitrile and analyzed by LC/MS-MS using a PhenomexSynergi Polar-RP 4micron 50×2.0 mm column eluted with a biphasic mobile phase (0.5% formic acid in acetonitrile and water).

[3] = system: H460 human lung adenocarcinoma xenografts; test: H460 xenograft growth in athymic mice; format: in vivo, BALB/c athymic mice; conditions: 120 mg/kg daily by gavage
Protocol: For xenograft studies, LLC or H460 cells collected from exponential growth phase culture were washed and resuspended in PBS. Groups of female C57BL/6 mice were injected with LLC cells (n=10 per group, s.c., 1×10^6 cells) and groups of female BALB/c athymic mice (Charles River) were injected with H460 cells (n=10 per group, s.c, 5 × 10^6 cells). Tumor masses were determined in a blinded fashion with Vernier calipers using the formula: mass (mg) = (width, mm)^2 X (length, mm)/2 as previously described. When tumor masses were 150-200 mg, mice were randomized to daily DMSO or 5MPN (in 30% Captisol, 100 μl, by gavage). Tumor measurements and body weights were followed daily. All data are expressed as the mean ± SD of two experiments. Statistical significance was assessed by the two-sample t test (independent variable).

ATP in H460 cells = test: Intracellular ATP measurement; format: cell-based, human; conditions: 10 μM, 6-72 hours
Protocol: Cells were lysed and intracellular ATP determined as described previously. All data are expressed as the mean ± SD of three experiments. Statistical significance was assessed by the two-sample t test (independent variable).

human recombinant PFKFB3, sequence (Q16875 whole entry): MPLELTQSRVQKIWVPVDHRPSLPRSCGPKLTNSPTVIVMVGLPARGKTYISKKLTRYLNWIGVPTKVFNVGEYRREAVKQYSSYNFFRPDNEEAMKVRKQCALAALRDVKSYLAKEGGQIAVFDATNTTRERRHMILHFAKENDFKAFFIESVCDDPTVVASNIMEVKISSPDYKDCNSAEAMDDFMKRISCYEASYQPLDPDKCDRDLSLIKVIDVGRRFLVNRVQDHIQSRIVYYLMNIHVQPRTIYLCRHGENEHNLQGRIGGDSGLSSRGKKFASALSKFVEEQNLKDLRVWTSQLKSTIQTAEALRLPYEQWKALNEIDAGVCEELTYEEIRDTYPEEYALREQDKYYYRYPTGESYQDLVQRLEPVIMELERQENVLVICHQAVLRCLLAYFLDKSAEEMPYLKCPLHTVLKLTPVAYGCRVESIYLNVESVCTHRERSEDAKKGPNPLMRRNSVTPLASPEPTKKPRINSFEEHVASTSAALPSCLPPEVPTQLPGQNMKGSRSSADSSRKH

For COc1cccc2c(NCCCCCO[N+](=O)[O-])ccnc12 [Compound 5MPN, 5-(n-(8-methoxy-4-quinolyl)amino)pentyl nitrate], the “inhibition of PFKFB3 kinase activity” value (human recombinant PFKFB3) was “no inhibition of kinase activity”, the “increase in apoptotic cells” value (H460 cells) was “only a minimal increase” and the mode of inhibition (human recombinant PFKFB4) was “competitive inhibitor of the F6P binding site”. The Ki (human recombinant PFKFB4; F6P as substrate, read-out: Ki for 5MPN inhibition) was 8.6 ± 1.9 µM, the “[F2,6BP]” value ([1]; 5μM 5MPN) was 2.3 ±0.05 pmol/mg protein and the “[F2,6BP]” value ([1]; 10μM 5MPN) was 1.52 ±0.2 pmol/mg protein. For the same compound, the “[F2,6BP]” value ([1]; 20 μM 5MPN) was 0.75±0.09 pmol/mg protein, the “[F2,6BP]” value ([1]; 30 μM 5MPN) was 0.43 ±0.1 pmol/mg protein and the “effect of PFKFB4 over-expression on the reduction in F2,6BP caused by 5MPN” value ([1]; Vec vs FB4, 10 μM 5MPN, 24 hours) was “reversed”. For the same compound, the AUC(0-inf) ([2]; iv, 2 mg/kg, I.V.) was 114 ng·h/mL, the AUC(0-t) ([2]; iv, 2 mg/kg, I.V.) was 111 ng·h/mL and the C0 ([2]; iv, 2 mg/kg, I.V.) was 249 ng/mL. It also gave a half-life ([2]; iv, 2 mg/kg, I.V.) of 0.387 h, a Vd ([2]; iv, 2 mg/kg, I.V., read-out: Vss) of 8.48 L/kg and an MRT ([2]; iv, I.V.) of 0.485 h. The clearance ([2]; iv, I.V.) was 291 mL/min/kg, the MRT ([2]; po, 10 mg/kg, P.O) was 2.31 h and the AUC(0-inf) ([2]; po, P.O) was 234 ng·h/mL. For the same compound, the AUC(0-t) ([2]; po, P.O) was 225 ng·h/mL, the Cmax ([2]; po, P.O) was 98.7 ng/mL and the bioavailability ([2]; po, P.O) was 40.9%. The half-life ([2]; po, P.O) was 1.67 h, the body weight ([3]; H460-bearing BALB/c athymic mice) was “without affecting body weight” and the tumor growth ([3]; H460 xenografts in BALB/c athymic mice) was “suppressed the growth”. For the same compound, the “effect on ATP” value (ATP in H460 cells) was “reduced”.
